Holding throughout (format): functional
Test [1] has as its system Spilarctia obliqua. The test can be described thus: Antifeedant activity against fourth-instar larval stage of Spilarctia obliqua reared on artificial diet containing compound assessed as feeding deterrence index at 2000 ppm after 24 hr.
Test [2] concerns Spilarctia obliqua. The test can be described thus: Antifeedant activity against fourth-instar larval stage of Spilarctia obliqua reared on artificial diet containing compound assessed as growth inhibition at 3000 ppm after 48 hr. The following applies: read-out: GI.
Test [3] deals with Spilarctia obliqua. The test can be described thus: Antifeedant activity against fourth-instar larval stage of Spilarctia obliqua reared on artificial diet containing compound assessed as feeding deterrence index at 5000 ppm after 24 hr.
Test [4] relates to Spilarctia obliqua. The test can be described thus: Antifeedant activity against fourth-instar larval stage of Spilarctia obliqua reared on artificial diet containing compound assessed as growth inhibition at 5000 ppm after 48 hr. The following applies: read-out: GI.
Test [5] relates to Spilarctia obliqua. The test can be described thus: Antifeedant activity against fourth-instar larval stage of Spilarctia obliqua reared on artificial diet containing compound assessed as growth inhibition at 1000 ppm after 48 hr. The conditions noted are these: read-out: GI.
Test [6] concerns Spilarctia obliqua. The test can be described thus: Antifeedant activity against fourth-instar larval stage of Spilarctia obliqua reared on artificial diet containing compound assessed as feeding deterrence index at 1000 ppm after 24 hr.
The test system of test [7] is Spilarctia obliqua. The test can be described thus: Antifeedant activity against fourth-instar larval stage of Spilarctia obliqua reared on artificial diet containing compound assessed as growth inhibition at 2000 ppm after 48 hr. The following applies: read-out: GI.
For test [8], the system named is Spilarctia obliqua. The test can be described thus: Antifeedant activity against fourth-instar larval stage of Spilarctia obliqua reared on artificial diet containing compound assessed as feeding deterrence index at 4000 ppm after 24 hr.
The test system of test [9] is Spilarctia obliqua. The test can be described thus: Antifeedant activity against fourth-instar larval stage of Spilarctia obliqua reared on artificial diet containing compound assessed as growth inhibition at 4000 ppm after 48 hr. The following applies: read-out: GI.
Test [10] relates to Spilarctia obliqua. The test can be described thus: Antifeedant activity against fourth-instar larval stage of Spilarctia obliqua reared on artificial diet containing compound assessed as feeding deterrence index at 3000 ppm after 24 hr.
Test [11] relates to Spilarctia obliqua. The test can be described thus: Antifeedant activity against fourth-instar larval stage of Spilarctia obliqua reared on artificial diet containing compound assessed as growth inhibition […] after 48 hr. The following applies: read-out: GI.

On to `COc1ccc(CC[C@@H](C)N)cc1`, for which the FDI was 40% in the test on Spilarctia obliqua [1]; 100% with Spilarctia obliqua [3]; 32% in the test on Spilarctia obliqua [6]; 82% in the test with Spilarctia obliqua [8]; 64% with Spilarctia obliqua [10]. Also, in the test with Spilarctia obliqua [2], the inhibition of growth at 3000 ppm was 72%. Besides, the inhibition of growth at 5000 ppm with Spilarctia obliqua [4] came out at 128%. Moreover, the inhibition of growth at 1000 ppm with Spilarctia obliqua [5] amounted to 48%. Moreover, the inhibition of growth at 2000 ppm in the test on Spilarctia obliqua [7] worked out at 59%. Moreover, the inhibition of growth at 4000 ppm in the test with Spilarctia obliqua [9] was 100%.
As for `C/C=C(\C)C(=O)O[C@H]1C[C@@H](OC(C)=O)[C@@]2(C(=O)OC)CO[C@H]3[C@@H](O)[C@@](C)([C@]45O[C@@]4(C)[C@@H]4C[C@H]5O[C@@H]5OC=C[C@@]54O)[C@H]4[C@]1(CO[C@]4(O)C(=O)OC)[C@@H]32` [AZADIRACHTIN A], in the test on Spilarctia obliqua [6], the FDI turned out to be 100%.
As to `O=C(NC(=O)c1c(F)cccc1F)Nc1ccc(Cl)cc1` [DIFLUBENZURON], the inhibition of growth at 5 ppm with Spilarctia obliqua [11] is 100%.

The values are drawn from ChEMBL document CHEMBL3045160, “Betuligenol derivative with growth inhibition and antifeedant activity” (2004).
